Data taken from PubChem BioAssay AID1963837 (Molecular Pharmacology Branch, DTP, NCI, 2024).
Values joined by “and” are separate entries in the source; they are usually repeats but may differ in a detail not shown here. Equal values may be shown once.

System: 843126-344-R-J1-PDC complex spheroid viability
Test: Anticancer human tumor 843126-344-R-J1-PDC patient-derived melanoma cell line growth inhibition [POLQ]
Details: for viability, T/C: stronger effect = lower value; active = viability on the fitted dose curve at most 10% of control; inactive = the rest
Description: Multicellular complex tumor spheroid response to Polymerase (POL) inhibitors (novobiocin, ART-558, RP6685) in combination with a variety of drugs and investigational agents in selected tumor cell lines
The POL inhibitors (novobiocin, ART-558, and RP6685) were evaluated both individually and in combination with standard of care and investigational anticancer small molecules within a complex spheroid model of solid tumors. . Complex spheroids include a stromal component modeled by human endothelial cells (HUVEC) and fibroblasts modeled by human mesenchymal stem cells (MSCs). The concentration ranges selected for each drug and investigational agent were based upon clinically achievable concentrations if the clinical Cmax of the agent was known.
Compounds. The drugs and investigational agents: novobiocin (NSC847541), ART-558 (NSC835418), RP-6685 (NSC848927), peposertib (NSC802822), ceralasertib (NSC780249), elimusertib (NSC800525), camonsertib (NSC841442), AZD-1390 (NSC803789), olaparib (NSC753686), talazoparib (NSC767125), rucaparib (NSC756644), sotorasib (NSC818433), MRTX-1133 (NSC836407), SN-38 (NSC673596), topotecan (NSC609699), epotoside (NSC141540), doxorubicin (NSC123127), gemcitabine (NSC613327), 5-fluorouracil (NSC19893), paclitaxel (NSC125973), vemurafenib (NSC761431), MSA-2 (NSC828583), SN-011 (NSC837082), adavosertib (NSC754352), prexasertib (NSC758257), carboplatin (NSC241240) and oxaliplatin (NSC266046), were obtained from the National Cancer Institute (NCI) Developmental Therapeutics Program Chemical Repository (21). The FDA-approved anticancer drug set is available from the Developmental Therapeutics Program at https://dtp.cancer.gov/organization/dscb/obtaining/. […] The stock solutions were prepared in dimethyl sulfoxide (DMSO, Sigma-Aldrich, St. Louis, MO, cat. D2650), except for the platinum compounds which were prepared in saline (Quality Biological, Gaithersburg, MD, cat. 114-055-101), at 800-fold the tested concentration and stored at -70 degrees C prior to their use. All drugs and investigational agents were tested over a range starting from a high concentration at or near the clinical Cmax and decreasing in half-log increments. If the clinical Cmax for an agent had not been determined, the highest concentration tested was 10 microM, except for SN-38, which was tested at a high concentration of 1 microM.
Cell Culture. All cells were maintained in an incubator at 37 degrees C and 5% CO2 with 95% humidity. The PDC lines were cultured according to standard operating procedures established by the NCI PDMR (https://pdmr.cancer.gov). Table 3 of the manuscript, lists the cell lines along with the number of the three cell types plated to form the mct-spheroids and media for tumor cell growth. After thawing, all PDC lines, except 997537-175-T-J1-PDC and 415267-285-R-J2-PDC, were cultured in Matrigel-coated flasks prepared with a working solution of 1X Ham's F-12 nutrient mix, without supplementation (Thermo Fisher Scientific, cat. 11765054), 100 U/mL penicillin-streptomycin (Thermo Fisher Scientific, cat. 15140122), and 2.5% Matrigel (Corning Inc., Corning, NY, cat. 354248) for the first three passages. The two PDC lines 997537-175-T-J1-PDC and 415267-285-R-J2-PDC were cultured on uncoated flasks. The 857933-349-R-J2-PDC line was cultured in 6C/Colon 1B media containing advanced DMEM/F-12 (Thermo Fisher Scientific, cat. 12634028), 10 mM HEPES (Thermo Fisher Scientific, cat. 15630080), 1X GlutaMAX supplement (Thermo Fisher Scientific, cat. 35050061), 0.1 mg/mL primocin (InvivoGen, San Diego, CA, cat. ant-pm-2), 10% defined fetal bovine serum, heat inactivated (HyClone Laboratories Inc., Logan, UT, cat. SH30070.03HI), 50% L-WRN conditioned media (ATCC, cat. CRL-3276), 1.25 mM N-Acetyl-L-cysteine (Sigma-Aldrich, cat. A9165), 10 mM nicotinamide (Sigma-Aldrich, cat. N0636), 1X B-27 supplement (Thermo Fisher Scientific, cat. 17504044), 1X N-2 supplement (Thermo Fisher Scientific, cat. […]

[1] = curve of first compound, second compound 0.0316 µM
[2] = curve of first compound, second compound 0.1 µM
[3] = curve of first compound, second compound 0.316 µM
[4] = curve of first compound, second compound 1 µM
[5] = curve of first compound, second compound 3.16 µM
[6] = curve of first compound, second compound 10 µM
[7] = second compound 0.0316 µM, first compound 0.0316 µM
[8] = second compound 0.0316 µM, first compound 0.1 µM
[9] = second compound 0.0316 µM, first compound 0.316 µM
[10] = second compound 0.0316 µM, first compound 1 µM
[11] = second compound 0.1 µM, first compound 0.0316 µM
[12] = second compound 0.1 µM, first compound 0.1 µM
[13] = second compound 0.1 µM, first compound 0.316 µM
[14] = second compound 0.1 µM, first compound 1 µM
[15] = second compound 0.316 µM, first compound 0.0316 µM
[16] = second compound 0.316 µM, first compound 0.1 µM
[17] = second compound 0.316 µM, first compound 0.316 µM
[18] = second compound 0.316 µM, first compound 1 µM
[19] = second compound 1 µM, first compound 0.0316 µM
[20] = second compound 1 µM, first compound 0.1 µM
[21] = second compound 1 µM, first compound 0.316 µM
[22] = second compound 1 µM, first compound 1 µM
[23] = second compound 3.16 µM, first compound 0.0316 µM
[24] = second compound 3.16 µM, first compound 0.1 µM
[25] = second compound 3.16 µM, first compound 0.316 µM
[26] = second compound 3.16 µM, first compound 1 µM
[27] = second compound 10 µM, first compound 0.0316 µM
[28] = second compound 10 µM, first compound 0.1 µM
[29] = second compound 10 µM, first compound 0.316 µM
[30] = second compound 10 µM, first compound 1 µM
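For viability, T/C in this document: spheroids exposed to drugs for seven days before readout.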

CCCS(=O)(=O)Nc1ccc(F)c(C(=O)c2c[nH]c3ncc(-c4ccc(Cl)cc4)cc23)c1F + COC1C(OC(N)=O)C(O)C(Oc2ccc3c(O)c(NC(=O)c4ccc(O)c(CC=C(C)C)c4)c(=O)oc3c2C)OC1(C)C
inactive: viability, T/C [7] 88.8% | viability, T/C [8] 87.5% | viability, T/C [9] 62.7% | viability, T/C [10] 72.9% | viability, T/C (second compound 0.0316 µM, first compound 3.16 µM) 75.6% | viability, T/C (second compound 0.0316 µM, first compound 10 µM) 60% | viability, T/C [11] 77.5% | viability, T/C [12] 81.7% | viability, T/C [13] 84.5% | viability, T/C [14] 64.5% | viability, T/C (second compound 0.1 µM, first compound 3.16 µM) 72.5% | viability, T/C (second compound 0.1 µM, first compound 10 µM) 72.5% | viability, T/C [15] 78.5% | viability, T/C [16] 97.1% | viability, T/C [17] 86.3% | viability, T/C [18] 70.5% | viability, T/C (second compound 0.316 µM, first compound 3.16 µM) 71.7% | viability, T/C (second compound 0.316 µM, first compound 10 µM) 70.8% | viability, T/C [19] 82.2% | viability, T/C [20] 98.2% | viability, T/C [21] 80.4% | viability, T/C [22] 87.6% | viability, T/C (second compound 1 µM, first compound 3.16 µM) 65.5% | viability, T/C (second compound 1 µM, first compound 10 µM) 65% | viability, T/C [23] 92.1% | viability, T/C [24] 77.9% | viability, T/C [25] 91.2% | viability, T/C [26] 72.6% | viability, T/C (second compound 3.16 µM, first compound 3.16 µM) 77.9% | viability, T/C (second compound 3.16 µM, first compound 10 µM) 77.2% | viability, T/C [27] 83.2% | viability, T/C [28] 106% | viability, T/C [29] 83.2% | viability, T/C [30] 75.2% | viability, T/C (second compound 10 µM, first compound 3.16 µM) 75.3% | viability, T/C (second compound 10 µM, first compound 10 µM) 64.3%
> 10000 nM: IC50 [1] | IC50 [2] | IC50 [3] | IC50 [4] | IC50 [5] | IC50 [6]

O=c1[nH]cc(F)c(=O)[nH]1
> 10000 nM: IC50 (curve of compound)
inactive: viability, T/C (compound 0.0316 µM) 119% and 102% and 97% | viability, T/C (compound 0.1 µM) 107% and 84.6% and 86.3% | viability, T/C (compound 0.316 µM) 104% and 89.5% and 75.2% | viability, T/C (compound 1 µM) 102% and 96.6% and 104% | viability, T/C (compound 3.16 µM) 106% and 98.3% and 96.6% | viability, T/C (compound 10 µM) 79.5% and 96.8% and 76.3%

COc1cccc(OCCCN)c1-c1cc(Nc2cnc(C#N)cn2)n[nH]1 + Cc1cccc(N(C)C(=O)C2C(O)CCN2c2nc(C)cc(C(F)(F)F)c2C#N)c1
82.4 nM: IC50 [2]
125 nM: IC50 [4]
157 nM: IC50 [3]
79.9 nM: IC50 [5]
inactive: viability, T/C (second compound 0.0316 µM, first compound 0.00316 µM) 96.8% | viability, T/C (second compound 0.0316 µM, first compound 0.01 µM) 75.1% | viability, T/C [7] 63.5% | viability, T/C [8] 48.8% | viability, T/C [9] 40.5% | viability, T/C [10] 34.3% | viability, T/C (second compound 0.1 µM, first compound 0.00316 µM) 102% | viability, T/C (second compound 0.1 µM, first compound 0.01 µM) 71.6% | viability, T/C [11] 61.1% | viability, T/C [12] 48% | viability, T/C [13] 42.6% | viability, T/C [14] 38.2% | viability, T/C (second compound 0.316 µM, first compound 0.00316 µM) 90% | viability, T/C (second compound 0.316 µM, first compound 0.01 µM) 75.9% | viability, T/C [15] 59.8% | viability, T/C [16] 59% | viability, T/C [17] 43.3% | viability, T/C [18] 34.4% | viability, T/C (second compound 1 µM, first compound 0.00316 µM) 92.9% | viability, T/C (second compound 1 µM, first compound 0.01 µM) 72.1% | viability, T/C [19] 62.4% | viability, T/C [20] 54.7% | viability, T/C [21] 42.3% | viability, T/C [22] 32.7% | viability, T/C (second compound 3.16 µM, first compound 0.00316 µM) 98.3% | viability, T/C (second compound 3.16 µM, first compound 0.01 µM) 77.3% | viability, T/C [23] 58.3% | viability, T/C [24] 47.5% | viability, T/C [25] 41.7% | viability, T/C [26] 33.8% | viability, T/C (second compound 10 µM, first compound 0.00316 µM) 108% | viability, T/C (second compound 10 µM, first compound 0.01 µM) 67.4% | viability, T/C [27] 64.3% | viability, T/C [28] 48.9% | viability, T/C [29] 42.5% | viability, T/C [30] 40.4%
96.1 nM: IC50 [1]
81.2 nM: IC50 [6]
